Like-named read-outs stand apart in the source and are kept apart here.
How the values were obtained:
HIV-1 RT [1] = molecular target: T1, HIV-1 RT (Human immunodeficiency virus type 1 group M subtype B, UniProt P03366); assay: Steady-state competition assay, inhibition of single nucleotide incorporation by HIV-1 RT; type: biochemical
T1 construct: heterodimeric p66/p51 wild-type HIV-1 RT; His tag (histidine tag) (C); made in house
Method: dTTP and dGTP were purchased from GE Biosciences. Oligonucleotide primers and template were synthesized and purified using 20% denaturing gel-electrophoresis. […] Labeling and annealing of primer/templates were performed as described previously. Murakami, et al., J. Biol. Chem. 2003, 278, 36403-36409. Expression and Purification of HIV-1 RT.
C-terminal histidine tagged heterodimeric p66/p51 wild-type HIV-1 RT was expressed and purified as described previously (Kerr and Anerson, Biochemistry, 1997, 36, 14064-14070) using a clone generously provided by Stephen Hughes, Paul Boyer, and Andrea Ferris (Fredrick Cancer Research and Development Center, Fredrick, Md.).
DMSO concentrations were kept constant at less than 2%. DMSO alone was added as a no inhibitor control for each set of experiments. Reactions were initiated with the addition of 5 μM dNTP and 10 mM MgCl2 and were quenched after 15 minutes at 37° C. with 0.3 M EDTA. All concentrations represent final concentrations after mixing. Reaction products were subjected to 20% denaturing polyacrylamide gel-electrophoresis and quantitated on a Bio-Rad Molecular Imager FX. Product formation was plotted as a function of inhibitor concentration and fitted to a hyperbola to generate IC50 curves. IC50 values are defined as the concentration of inhibitor that inhibits steady-state single nucleotide incorporation by 50%.

HIV-1 RT [2] = molecular target: T1, HIV-1 RT; assay: Incorporation assay under single turnover conditions (gel, FIG. 7); type: biochemical; details: 30 min, with Mg++; for incorporation into primer opposite template A: D23/D36mer, primer for T incorporation, no dTTP; for incorporation into primer opposite template C: D24/D36mer, primer for G incorporation, no dGTP
Method: Controls for both primer/templates include 0 time points (lanes 1 and 4) and incubation for 30 min. with no Mg^++ (lanes 2 and 5).
Incorporation experiments were performed under single turnover conditions; 50 μM d4U-TP-4PEG-TMC and 10 mM MgCl2 were mixed with 250 nM RT (active sites) and 50 nM 5′-labeled primer/template to initiate the reaction. Negative controls were performed under identical conditions without MgCl2. The reaction was allowed to proceed for 30 minutes at 37° C., after which the reaction was quenched with 0.3 M EDTA. Reaction products were subjected to 20% denaturing polyacrylamide gel-electrophoresis and analyzed on a Bio-Rad Molecular Imager FX.

[3] = inhibition of dGTP incorporation opposite template C, D24/D36mer primer-template, read-out: IC50 incorrect base pair
[4] = inhibition of dTTP incorporation opposite template A, D23/D36mer primer-template, read-out: IC50 correct base pair

Compound	fold improvement in potency relative to TMC-4PEG-OH (HIV-1 RT [1]; correct base pair, D23/D36mer) [fold]	IC50 (HIV-1 RT [1]; [3]) [nM]	IC50 (HIV-1 RT [1]; [4]) [nM]	fold improvement relative to d4T-TP (HIV-1 RT [1]; correct base pair, D23/D36mer) [fold]	fold improvement relative to the TMC-derivative (HIV-1 RT [1]; correct base pair, D23/D36mer)	incorporation into primer opposite template A (HIV-1 RT [2]; listed as d4U-TP-4PEG-TMC)	incorporation into primer opposite template A (HIV-1 RT [2]; listed as d4UTP-4PEG-TMC)	incorporation into primer opposite template C (HIV-1 RT [2]; listed as d4U-TP-4PEG-TMC)	incorporation into primer opposite template C (HIV-1 RT [2]; listed as d4UTP-4PEG-TMC)	fold lower potency relative to parent TMC-derivative (HIV-1 RT [1]; correct base pair, D23/D36mer) [fold]
Cc1cc(C#CCOCCOCCOCCOCCOCC#Cc2cn(C3C=CC(CO)O3)c(=O)[nH]c2=O)cc(C)c1Oc1ccnc(Nc2ccc(C#N)cc2)n1 (centres unmarked) [1b, d4U-propynyl-4-PEG-propynyl-TMC-120]	3	35	16	–	–	–	–	–	–	–
Cc1cc(C#CCOCCOCCOCCOCCOCC#Cc2cn(C3C=CC(COP(=O)(O)OP(=O)(O)OP(=O)(O)O)O3)c(=O)[nH]c2=O)cc(C)c1Oc1ccnc(Nc2ccc(C#N)cc2)n1 (centres unmarked) [1c, d4U-propynyl-4-PEG-propynyl-TMC-120 Triphosphate]	–	38	3	> 500	4-5 fold	formation of an elongated primer chain terminated with the bifunctional monophosphate	incorporation of the bifunctional-TP	not the D24/36mer primer-template	no product	–
Cc1cc(C#CCOCCOCCOCCOCCO)cc(C)c1Oc1ccnc(Nc2ccc(C#N)cc2)n1 [TMC-4PEG-OH, E, 4-(4-{4-[3-(2-{2-[2-(2-Hydroxy-ethoxy)-ethoxy]-ethoxy}-ethoxy)-prop-1-ynyl]-2,6-dimethyl-phenoxy}-pyrimidin-2-ylamino)-benzonitrile]	–	29	49	–	–	–	–	–	–	4
